Assay results taken from US10626077B2, “Salvianolic acid compound T, preparation method therefor, and use thereof” (TASLY PHARMACEUTICAL GROUP CO., LTD., priority 2013, dated 2020).

Experiments:
[1] = test system: rats with myocardial infarction induced by coronary artery ligation; experiment: Myocardial infarction rate (TTC staining) after coronary artery ligation; assay type: in vivo, SD rats; settings: high-dose group compared with aspirin group; FIG. 11 heart biopsy
Procedure: Clean male SD rats were taken and placed in groups randomly according to the body-weight, including pseudo operation group (distilled water), model group (distilled water), aspirin group, (S)-salvianolic acid T low-dose group, (S)-salvianolic acid T high-dose group, and there were 10 rats in each group. Each group of rats were administrated by gastric administration once a day, continuously for 10 days. […] Recording standard II lead ECG at 5 minutes before surgery, 0 s, 1 min, 5 min, 15 min, 1 h, 4 h after the ligation, to investigate the changes of J point of ECG. Taking out the heart immediately after the end of the experiment, washing away the blood with normal saline, cutting off the atrium and the bottom of the blood vessels, weighing the mass of the ventricle, cutting the ventricle into 5 pieces on average along the atrioventricular groove and putting them into 1% (w/v) TTC solution, dyeing in the water bath at a constant temperature of 37 °C for 5 min, taking digital photos firstly after taking them out, then separating the unstained parts (that is, the infarct parts) and weighing to calculate the percentage of them in the mass of total ventricular (myocardial infarction percentage), and performing t test with ischemia model group. The formula for calculating the infarct percentage is as follows: Infarct percentage (%)=(the mass of pale areas/the mass of the ventricle)×100%

[2] = Determination of reducing capacity (potassium ferricyanide / ferric chloride, absorbance at 700 nm)
Procedure: 0.5 ml of 200 mM phosphate buffer (pH6.8) containing different concentrations of the (S)/(R)-salvianolic acid T and 0.5 ml of 1.0% (w/v) potassium ferricyanide solution were sucked respectively and cooled on an ice bath after being heated on a water bath (50[…]) for 20 min. 0.5 ml of 10% trichloroacetic acid solution was added and centrifuged at […] for 10 min. 1.0 ml of the resulting supernatant was taken, into which 1.0 ml of distilled water and 0.2 ml of 0.1% (w/v) ferric chloride solution were added, stood still for 10 min and the absorbance was measured at 700 nm. Meanwhile, the blank experiment was carried out. Vitamin C is a strongly reducing substance, acting as positive control in this study. Reducing capacity of the sample is represented by subtracting the absorbance of the blank control from the absorbance of the tested sample. Thus, it means the higher absorbance, the stronger reducing capacity.

[3] = test system: pituitrin-caused acute myocardial ischemia in rats; experiment: Pituitrin-caused experimental acute myocardial ischemia in rats (ECG J point and T wave); assay type: in vivo, SD rats; set-up: J point / T wave: unit not given here
Procedure: Administration dose of the (R)-salvianolic acid T lyophilized powder was 10 mg/kg body-weight in high-dose group; 5.0 mg/kg body-weight in low-dose group.
2.1 Screening of Animals: Before formal experiment, rats were injected via vena caudalis with pituitrin (Pit) (1 U/kg). Normal ECG and the ECG of 5 min after injection were recorded to observe J point elevation and T wave abnormality. Animals who had abnormal ECG before injection or who were insensitive to Pit were rejected.
2.2 Grouping of Animals: The desirable rats were divided into 3 groups randomly, respectively named […]Model control group, □(R)-salvianolic acid T lyophilized powder low-dose group; □(R)-salvianolic acid T lyophilized powder high-dose group.
3. Experimental Methods: SD rats, in body-weight of 220-250 g, half male and half female, were randomly divided into groups, 10 animals in each group. The rats in the treatment groups were drenched with aqueous suspensions of different samples each day, while the rats in the model control group were drenched with equal volume of normal saline. All animals were consecutively administered for 7 days. 40 min after final administration, the rats were anesthetized and connected with devices to record lead II normal ECG. The pituitrin (Pit) was injected at a constant speed in the dosage of 1 U/kg body-weight via vena caudalis within about 10 s. ECG changes were recorded at 0 s, 5 s, 10 s, 15 s, 30 s, 45 s, 1 min, 2 min, 3 min, 4 min, 5 min, 10 min and 15 min after administration. Differences between pre injection and post injection of Pit of each group as well as between the treatment group and the model control group were compared to analyze changes of J point and T wave, and the data were analyzed by t-test.

[4] = DPPH free-radical scavenging reaction
Procedure: Absorbance of the reaction solution was measured at 517 nm. In this study, vitamin C was regarded as a positive control. Free-radical scavenging rate was calculated in accordance with the following equation: Free-radical scavenging rate (%)=[1−Asample/Acontrol)/Acontrol]×100% Wherein, the Asample means the absorbance of the tested samples, and Acontrol means the absorbance of blank control.

[5] = test system: L929 cells induced by TGF-β1; experiment: Inhibition of L929 cell proliferation induced by TGF-β1 (MTT); assay type: cell-based; settings: 2 μg/L TGF-β1, 72 h, MTT method
Procedure: L929 cells with a cell population of 5×10^7/L adjusted by DMEM culture solution containing 10% fetal bovine serum were seeded into 96 well plate, cultured for 24 h. Supplementing the same culture medium containing 2 μg/L TGF-β1 and (S)/(R)-salvianolic acid T of different concentrations. There were 6 multiple pores in each group, final concentration of (S)/(R)-salvianolic acid T was set as 0, 1, 3, 10, 20, 40, 80, 150 μmol/L. Removing medium after being cultured for 72 h, assaying the cell activity by MTT method.

[6] = compared with positive control vitamin C
[7] = high-dose group (10 mg/kg), 0 s after pituitrin
[8] = high-dose group (10 mg/kg), 15 s after pituitrin
[9] = high-dose group (10 mg/kg), 30 s after pituitrin
[10] = high-dose group (10 mg/kg), 45 s after pituitrin
[11] = high-dose group (10 mg/kg), 1 min after pituitrin
[12] = high-dose group (10 mg/kg), 5 min after pituitrin
[13] = high-dose group (10 mg/kg), 10 min after pituitrin
[14] = high-dose group (10 mg/kg, drenched 7 days), normal ECG before pituitrin
[15] = low-dose group (5.0 mg/kg), 0 s after pituitrin
[16] = low-dose group (5.0 mg/kg), 15 s after pituitrin
[17] = low-dose group (5.0 mg/kg), 30 s after pituitrin
[18] = low-dose group (5.0 mg/kg), 45 s after pituitrin
[19] = low-dose group (5.0 mg/kg), 1 min after pituitrin
[20] = low-dose group (5.0 mg/kg), 5 min after pituitrin
[21] = low-dose group (5.0 mg/kg), 10 min after pituitrin
[22] = low-dose group (5.0 mg/kg, drenched 7 days), normal ECG before pituitrin

With `O=C(/C=C/c1ccc(O)c(O)c1/C(=C\c1ccc(O)c(O)c1)C(=O)O)O[C@H](Cc1ccc(O)c(O)c1)C(=O)O` [(R)-salvianolic acid T] the “effect on preventing acute myocardial infarction induced by coronary artery ligation” value [1] was “equal effect”, the “reducing capacity compared with vitamin C” value [2, 6] was “much stronger than that of vitamin C” and the “reducing capacity (absorbance at 700 nm minus blank control)” value ([2]; sample 3.125 μg/ml) was 0.152 ± 0.034. The “reducing capacity (absorbance at 700 nm minus blank control)” value ([2]; sample 6.25 μg/ml) was 0.212 ± 0.009, the “reducing capacity (absorbance at 700 nm minus blank control)” value ([2]; sample 12.5 μg/ml) was 0.042 ± 0.011 and the “reducing capacity (absorbance at 700 nm minus blank control)” value ([2]; sample 25 μg/ml) was 0.761 ± 0.018. For the same molecule, the “reducing capacity (absorbance at 700 nm minus blank control)” value ([2]; sample 50 μg/ml) was 1.561 ± 0.026, the “effect of anti-acute myocardiac ischemia” value ([3]; 10.0 mg/kg) was “had effect of anti-acute myocardiac ischemia” and the J point [3, 7] was −0.040 ± 0.039. The T wave [3, 7] was 0.128 ± 0.106, the J point [3, 8] was −0.069 ± 0.035 and the T wave [3, 8] was 0.150 ± 0.101. It also gave a J point [3, 9] of −0.058 ± 0.035, a T wave [3, 9] of 0.100 ± 0.095 and a J point [3, 10] of −0.052 ± 0.031. For the same molecule, the T wave [3, 10] was 0.134 ± 0.105, the J point [3, 11] was −0.016 ± 0.037 and the T wave [3, 11] was 0.145 ± 0.099. For the same molecule, the J point [3, 12] was −0.058 ± 0.049, the T wave [3, 12] was 0.127 ± 0.104 and the J point [3, 13] was -0.061 ± 0.049. The T wave [3, 13] was 0.150 ± 0.102, the J point [3, 14] was −0.049 ± 0.037 and the T wave [3, 14] was 0.099 ± 0.073. For the same molecule, the J point [3, 15] was −0.040 ± 0.027, the T wave [3, 15] was 0.134 ± 0.104 and the J point [3, 16] was 0.023 ± 0.039. It also gave a T wave [3, 16] of 0.211 ± 0.109, a J point [3, 17] of −0.052 ± 0.022 and a T wave [3, 17] of 0.189 ± 0.120. For the same molecule, the J point [3, 18] was −0.030 ± 0.041, the T wave [3, 18] was 0.176 ± 0.137 and the J point [3, 19] was −0.016 ± 0.032. The T wave [3, 19] was 0.151 ± 0.097, the J point [3, 20] was −0.034 ± 0.052 and the T wave [3, 20] was 0.121 ± 0.101. For the same molecule, the J point [3, 21] was −0.025 ± 0.051, the T wave [3, 21] was 0.142 ± 0.099 and the J point [3, 22] was −0.054 ± 0.046. For the same molecule, the T wave [3, 22] was 0.101 ± 0.069, the “free-radical scavenging compared with vitamin C” value [4, 6] was “much higher free-radical scavenging than that of the vitamin C” and the Free-radical scavenging rate ([4]; sample 0.625 μg/ml, 100 μM DPPH, 20 min, 25° C.) was 10.51 ± 0.73%. For the same molecule, the Free-radical scavenging rate ([4]; sample 1.25 μg/ml) was 28.15 ± 2.47%, the Free-radical scavenging rate ([4]; sample 2.5 μg/ml) was 43.41 ± 1.85% and the Free-radical scavenging rate ([4]; sample 5 μg/ml) was 85.59 ± 8.75%. For the same molecule, the Free-radical scavenging rate ([4]; sample 10 μg/ml) was 99.47 ± 5.14% and the IC50 [5] was 26.9 µM.
